Values joined by “and” are separate entries in the source; they are usually repeats but may differ in a detail not shown here. Equal entries are not always repeated. Where two headings read alike, the source gives them in different places.
System: panel of 66 cancer cell lines
Experiment: cancer cell line screen, proliferation assay (ATPlite, 72 h)
Type: cell-based, human
Details: for IC50: Homo sapiens; for raw signal, dose-response (Figure S7a): rep1, rep2, listed as AVX235
Description: Targeting specific molecular vulnerabilities in cancer is considered a key approach to reducing the adverse effects of chemotherapy. However, the events that govern the susceptibility to suppression of the cPLA2α in cancer remain largely unexplored. We therefore took the approach of screening the antiproliferative activity of AVX420 in a panel of 66 cancer cell lines (hereafter referred to as the cancer cell line screen or CCLS) to allow us to investigate molecular and genetic vulnerabilities to the drug.
Screening of compound activities in 66 cancer cell lines was carried out at the Netherlands Translation Research Center. Briefly, proliferation assays were performed 72 h after compound addition using ATPlite 1step reagent (Perkin Elmer). IC50s calculated by non-linear regression analysis were used as a measure of compound activity for investigating associations with genetic factors. A complete description of the laboratory and data analysis methods are available in the Supplementary Information file (Supplemental Methods: Cancer Cell Line Screening).
Cancer cell line screening
Cell proliferation assays
All cell lines were from the American Type Culture Collection (ATCC) Manassas, Virginia (US) and maintained under ATCC-recommended protocols and within 9 pas- […]
DMSO at -80°C until one hour before use. Cells exposed within one hour after thaw-ing of the compound stocks. Final compound concentration range in the assay was 10 […]
cated by supplier. Compounds were dissolved in 100 % DMSO and stored at room temperature. Final concentration of the reference compounds in the assay was 3.16x10-5 M to 3.16x10-9 M. The final DMSO concentration during incubation was […]
Cell lines were plated in Advanced RPMI 1640 (Gibco, ref 12633-012) cell culture medium, containing 1% Glutamax solution (Gibco, ref 35050-038), 0.4% Pen Strep solution (Gibco, ref 15140-122) and bovine serum. The cPLA2α inhibitors were tested in 0.5% bovine serum (HyClone, ref SH30072.03) with the exception of769-P, A-204, BT-549, SR, T98G, which were tested in the presence of 1.0% serum and A-704 and LNCaP FGS, which were tested in the in the presence of 10% serum. Reference com-pounds were all tested in the presence of 10% bovine serum.
Cells were dispensed in a 384-well plate, at a concentration of 200 - 3200 cells per well, depending on the cell line, in 45 μL medium. Plated cells were incubated in a humidified atmosphere of 5% CO2 at 37 °C. After 24 hours, 5 μL of compound dilu-tion was added and plates were further incubated for another 72 hours. After 72 hours, 25 μL of ATPlite 1Step™ (PerkinElmer) solution was added to each well, and subse-quently shaken for 2 minutes. After 10 minutes of incubation in the dark, the lumines-cence was recorded on an Envision multimode reader (PerkinElmer).
Cell growth control. The cellular doubling times of all cell lines are calculated from the t = 0 hours and t = 72 hours growth signals of the untreated cells. If the doubling time is out of specification (0.5 – 2.0 times deviating from historic average) the assay […]
IC50s were calculated by non-linear regression using IDBS XLfit 5. The percentage growth after 72h (%-growth) was calculated as follows: 100% x (luminescence t = 72h / luminescence untreated,t=72h). This was fitted to the 10log compound concentration (conc) by a 4-parameter logistics curve: %-growth = bottom + (top – bottom) / (1+ 10(logIC50 – conc)*hill)), where hill is the Hill-coefficient, and bottom and top the asymptotic mini-mum and maximum cell growth that the compound allows in that assay.
All analysis were performed in the statistical software package R and visualized using GraphPad Prism version 10.0 .0

Q: Which results are given for `CCCCCCCCc1ccc(OCC(=O)c2nc(C(=O)OC)cs2)cc1` [GK470]?
A: IC50 (SK-N-AS, SKNAS, peripheral_nervous_system, read-out: pIC50 (converted)): 19.1 µM; IC50 (SK-N-AS, read-out: IC50): 19 µM; IC50 (SK-N-FI, read-out: IC50): 17.5 µM; IC50 (SNU-C2B, read-out: IC50): 14.7 µM; IC50 (SR, read-out: IC50): 13.8 µM; IC50 (SUP-T1, SUP-T1, read-out: IC50): 12.5 µM; IC50 (SW48, SW48, large_intestine, read-out: pIC50 (converted)): 20 µM; IC50 (SW48, SW48, read-out: IC50): 19.9 µM; IC50 (SW480, SW480, read-out: IC50): 13.5 µM; IC50 (SW948, SW948, read-out: IC50): 17.4 µM; IC50 (SW-620, SW620, read-out: IC50): 18.1 µM; IC50 (T98G, read-out: IC50): 28.4 µM; IC50 (T-24, T24, read-out: IC50): 12.3 µM; IC50 (TT, read-out: IC50): 21.8 µM; IC50 (U2OS, U-2 OS, read-out: IC50): 17.7 µM; IC50 (U-87 MG, U87MG, central_nervous_system, read-out: pIC50 (converted)): 17 µM; IC50 (U-87 MG, read-out: IC50): 17 µM; IC50 (VA-ES-BJ, read-out: IC50): 19.6 µM; pIC50 (Hs578T, breast): 4,862; pIC50 (J82, urinary_tract): 4,801; raw signal, dose-response (Figure S7a) (Jurkat E6.1, Log10 M -4): 1240 and 667; raw signal, dose-response (Figure S7a) (Jurkat E6.1, Log10 M -4.5): 69347 and 62800; raw signal, dose-response (Figure S7a) (Jurkat E6.1, Log10 M -5): 1516720 and 2014840; raw signal, dose-response (Figure S7a) (Jurkat E6.1, Log10 M -5.5): 2624707 and 2368947; raw signal, dose-response (Figure S7a) (Jurkat E6.1, Log10 M -6): 2496507 and 2717280; raw signal, dose-response (Figure S7a) (Jurkat E6.1, Log10 M -6.5): 2786800 and 2504560; raw signal, dose-response (Figure S7a) (Jurkat E6.1, Log10 M -7): 2315800 and 2537613; raw signal, dose-response (Figure S7a) (Jurkat E6.1, Log10 M -7.5): 2302120 and 2459400; raw signal, dose-response (Figure S7a) (Jurkat E6.1, Log10 M -8): 2509133 and 2328987; pIC50 (Jurkat, blood): 4,903; pIC50 (K562, blood): 4,964; pIC50 (KU812, blood): 4,982; raw signal, dose-response (Figure S7a) (KU812, Log10 M -4): 2000 and 2307; raw signal, dose-response (Figure S7a) (KU812, Log10 M -5): 1822573 and 2233120; raw signal, dose-response (Figure S7a) (KU812, Log10 M -5.5): 3176813 and 3177440; raw signal, dose-response (Figure S7a) (KU812, Log10 M -6): 3485480 and 3637827; raw signal, dose-response (Figure S7a) (KU812, Log10 M -6.5): 3729800 and 3806653; raw signal, dose-response (Figure S7a) (KU812, Log10 M -7): 3631000 and 3828800; raw signal, dose-response (Figure S7a) (KU812, Log10 M -7.5): 3591800 and 3773040; raw signal, dose-response (Figure S7a) (KU812, Log10 M -8): 3583000 and 3731880; pIC50 (LoVo, large_intestine): 4,715; pIC50 (MCF7, breast): 4,897; pIC50 (MIAPaCa2, pancreas): 4,962; raw signal, dose-response (Figure S7a) (MOLT-4, Log10 M -4): 6747 and 7320; raw signal, dose-response (Figure S7a) (MOLT-4, Log10 M -4.5): 20107 and 20253; raw signal, dose-response (Figure S7a) (MOLT-4, Log10 M -5): 5205800 and 4645067; raw signal, dose-response (Figure S7a) (MOLT-4, Log10 M -5.5): 6414373 and 7056240; raw signal, dose-response (Figure S7a) (MOLT-4, Log10 M -6): 6351120 and 6709307; raw signal, dose-response (Figure S7a) (MOLT-4, Log10 M -6.5): 7338240 and 7172960; raw signal, dose-response (Figure S7a) (MOLT-4, Log10 M -7): 6855453 and 6993467; raw signal, dose-response (Figure S7a) (MOLT-4, Log10 M -7.5): 7127253 and 7052227; raw signal, dose-response (Figure S7a) (MOLT-4, Log10 M -8): 6961773 and 6888133; pIC50 (MeWo, skin): 4,763; pIC50 (NCIH82, lung): 4,863; pIC50 (NCIH460, lung): 4,648; pIC50 (PA1, ovary): 4,937; pIC50 (RPMI7951, skin): 4,789; pIC50 (RT4, urinary_tract): 4,784; pIC50 (SHP77, lung): 4,925; pIC50 (SKNFI, peripheral_nervous_system): 4,757; raw signal, dose-response (Figure S7a) (SR, Log10 M -4): 14067 and 13787; raw signal, dose-response (Figure S7a) (SR, Log10 M -4.5): 35000 and 26573; raw signal, dose-response (Figure S7a) (SR, Log10 M -5): 2706093 and 3120400; raw signal, dose-response (Figure S7a) (SR, Log10 M -5.5): 3256320 and 3580587; raw signal, dose-response (Figure S7a) (SR, Log10 M -6): 3226453 and 3322280; raw signal, dose-response (Figure S7a) (SR, Log10 M -6.5): 3558600 and 3526027; raw signal, dose-response (Figure S7a) (SR, Log10 M -7): 2883787 and 3035533; raw signal, dose-response (Figure S7a) (SR, Log10 M -7.5): 3423760 and 3325493; raw signal, dose-response (Figure S7a) (SR, Log10 M -8): 3355853 and 3535333; raw signal, dose-response (Figure S7a) (SUP-T1, Log10 M -4): 23760 and 47307; raw signal, dose-response (Figure S7a) (SUP-T1, Log10 M -4.5): 44040 and 66933; raw signal, dose-response (Figure S7a) (SUP-T1, Log10 M -5): 5647093 and 4986840; raw signal, dose-response (Figure S7a) (SUP-T1, Log10 M -5.5): 6851973 and 7008107; raw signal, dose-response (Figure S7a) (SUP-T1, Log10 M -6): 6610693 and 7288227; raw signal, dose-response (Figure S7a) (SUP-T1, Log10 M -6.5): 6531960 and 6798507; raw signal, dose-response (Figure S7a) (SUP-T1, Log10 M -7): 6485200 and 6760880; raw signal, dose-response (Figure S7a) (SUP-T1, Log10 M -7.5): 6096293 and 6838453; raw signal, dose-response (Figure S7a) (SUP-T1, Log10 M -8): 6918733 and 6611987; pIC50 (SUPT1, blood): 4,905; pIC50 (SW480, large_intestine): 4,869; pIC50 (SW620, large_intestine): 4,743; pIC50 (SW948, large_intestine): 4,759; pIC50 (T24, urinary_tract): 4,911; pIC50 (T98G, central_nervous_system): 4,546; pIC50 (TT, thyroid): 4,661; pIC50 (U2OS, bone): 4,752; pIC50 (VAESBJ, soft_tissue): 4,707

From paper PMC11696576, “Next generation thiazolyl ketone inhibitors of cytosolic phospholipase A2 α for targeted cancer therapy” (Nature Communications, 2025)
